Key:
[1] = target: Ribosomal protein S6 kinase alpha-5 (Homo sapiens) (UniProt O75582); assay: Selectivity interaction (KinomeScan (DiscoverX)) EUB0001049a RPS6KA5; conditions: at 1 µM
[2] = target: Phosphatidylinositol 4,5-bisphosphate 3-kinase catalytic subunit gamma isoform (Homo sapiens) (UniProt P48736); assay: Selectivity interaction (KinomeScan (DiscoverX)) EUB0000229b PIK3CG; conditions: at 10 µM
[3] = target: Histamine H1 receptor (Homo sapiens, UniProt P35367); assay: Selectivity interaction (Histamine H1 receptor assay, human recombinant ) EUB0000877a HRH1
[4] = target: Serine/threonine-protein kinase PAK 2 (Homo sapiens) (UniProt Q13177); conditions: at 10 µM
[5] = target: Phosphatidylinositol 4,5-bisphosphate 3-kinase catalytic subunit alpha isoform (Homo sapiens) (UniProt P42336); assay: Selectivity interaction (Kinase panel (Invitrogen)) EUB0000639a PIK3CA; conditions: at 200 nM
Phosphatidylinositol 4,5-bisphosphate 3-kinase catalytic subunit alpha isoform (Homo sapiens), sequence (P42336 whole entry, canonical isoform): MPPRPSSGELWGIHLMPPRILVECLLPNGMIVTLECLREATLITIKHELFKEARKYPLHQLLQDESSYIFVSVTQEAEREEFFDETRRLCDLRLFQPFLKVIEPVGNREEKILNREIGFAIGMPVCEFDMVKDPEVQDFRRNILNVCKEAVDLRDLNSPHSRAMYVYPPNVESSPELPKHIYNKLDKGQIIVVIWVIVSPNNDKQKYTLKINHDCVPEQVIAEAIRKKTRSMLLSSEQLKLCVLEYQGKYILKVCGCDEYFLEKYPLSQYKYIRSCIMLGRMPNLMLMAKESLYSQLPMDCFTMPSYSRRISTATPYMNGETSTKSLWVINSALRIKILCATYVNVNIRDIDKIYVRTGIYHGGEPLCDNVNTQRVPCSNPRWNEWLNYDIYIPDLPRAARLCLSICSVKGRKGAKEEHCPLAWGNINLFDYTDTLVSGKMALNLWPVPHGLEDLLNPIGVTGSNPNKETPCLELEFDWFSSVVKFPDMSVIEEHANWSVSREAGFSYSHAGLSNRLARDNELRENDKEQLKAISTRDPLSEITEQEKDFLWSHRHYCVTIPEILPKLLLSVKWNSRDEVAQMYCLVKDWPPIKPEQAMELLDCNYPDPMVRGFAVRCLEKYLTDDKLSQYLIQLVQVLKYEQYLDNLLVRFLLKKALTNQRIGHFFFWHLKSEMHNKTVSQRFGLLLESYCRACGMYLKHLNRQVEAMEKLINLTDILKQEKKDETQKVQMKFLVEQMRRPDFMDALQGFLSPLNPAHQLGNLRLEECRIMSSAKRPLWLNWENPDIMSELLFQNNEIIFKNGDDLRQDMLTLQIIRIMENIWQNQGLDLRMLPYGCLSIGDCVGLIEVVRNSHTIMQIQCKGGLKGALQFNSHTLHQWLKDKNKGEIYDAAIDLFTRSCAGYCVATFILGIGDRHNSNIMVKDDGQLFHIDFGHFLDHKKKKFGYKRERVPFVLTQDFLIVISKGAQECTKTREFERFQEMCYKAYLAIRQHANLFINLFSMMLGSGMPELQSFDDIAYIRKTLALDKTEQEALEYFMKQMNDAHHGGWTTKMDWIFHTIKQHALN

[6] = target: Glycogen synthase kinase-3 beta (Homo sapiens, UniProt P49841); assay: Selectivity interaction (ActivX KiNativ screen (kinase selectivity in THP-1 cell lysates)) EUB0000639a GSK3B; assay type: subcellular; conditions: lysate
Glycogen synthase kinase-3 beta, sequence (P49841 whole entry, looked up): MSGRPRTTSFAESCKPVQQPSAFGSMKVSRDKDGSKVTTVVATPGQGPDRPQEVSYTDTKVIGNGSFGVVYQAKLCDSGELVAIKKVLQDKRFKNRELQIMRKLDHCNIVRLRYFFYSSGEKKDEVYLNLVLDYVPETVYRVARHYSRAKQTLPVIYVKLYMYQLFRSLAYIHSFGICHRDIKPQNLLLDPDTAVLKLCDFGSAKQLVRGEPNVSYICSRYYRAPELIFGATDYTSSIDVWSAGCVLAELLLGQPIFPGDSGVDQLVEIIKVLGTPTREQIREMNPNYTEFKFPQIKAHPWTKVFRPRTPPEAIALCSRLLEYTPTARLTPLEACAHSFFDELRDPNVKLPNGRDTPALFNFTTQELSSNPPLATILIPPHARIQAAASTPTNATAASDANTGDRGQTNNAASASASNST

[7] = target: Serine/threonine-protein kinase PLK1 (Homo sapiens, UniProt P53350); assay: Selectivity interaction (ActivX KiNativ screen (kinase selectivity in THP-1 cell lysates)) EUB0000639a PLK1; assay type: subcellular; conditions: lysate, at 5 µM
Serine/threonine-protein kinase PLK1, sequence (P53350 whole entry): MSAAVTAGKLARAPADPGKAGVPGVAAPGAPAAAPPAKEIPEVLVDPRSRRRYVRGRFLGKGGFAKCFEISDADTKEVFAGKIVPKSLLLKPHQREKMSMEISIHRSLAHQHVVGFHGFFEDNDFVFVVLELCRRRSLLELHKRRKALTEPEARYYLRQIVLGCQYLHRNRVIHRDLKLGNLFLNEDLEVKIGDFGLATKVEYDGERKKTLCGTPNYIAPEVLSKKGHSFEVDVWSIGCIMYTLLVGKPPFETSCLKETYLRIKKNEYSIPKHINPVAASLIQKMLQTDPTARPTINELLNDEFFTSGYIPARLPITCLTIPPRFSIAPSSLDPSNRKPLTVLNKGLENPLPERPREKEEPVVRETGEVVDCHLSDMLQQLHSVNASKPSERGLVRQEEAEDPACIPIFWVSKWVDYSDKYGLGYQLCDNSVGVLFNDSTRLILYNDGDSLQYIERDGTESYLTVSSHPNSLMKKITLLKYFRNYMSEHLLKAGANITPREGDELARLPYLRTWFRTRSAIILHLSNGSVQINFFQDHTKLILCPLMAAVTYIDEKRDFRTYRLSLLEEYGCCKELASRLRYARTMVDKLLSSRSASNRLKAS

[8] = target: T1, Serine/threonine-protein kinase TAO3 (Homo sapiens) (UniProt Q9H2K8); assay: Selectivity interaction (KinomeScan (DiscoverX)) EUB0000618a TAOK3; conditions: at 10 µM
T1 sequence (whole entry): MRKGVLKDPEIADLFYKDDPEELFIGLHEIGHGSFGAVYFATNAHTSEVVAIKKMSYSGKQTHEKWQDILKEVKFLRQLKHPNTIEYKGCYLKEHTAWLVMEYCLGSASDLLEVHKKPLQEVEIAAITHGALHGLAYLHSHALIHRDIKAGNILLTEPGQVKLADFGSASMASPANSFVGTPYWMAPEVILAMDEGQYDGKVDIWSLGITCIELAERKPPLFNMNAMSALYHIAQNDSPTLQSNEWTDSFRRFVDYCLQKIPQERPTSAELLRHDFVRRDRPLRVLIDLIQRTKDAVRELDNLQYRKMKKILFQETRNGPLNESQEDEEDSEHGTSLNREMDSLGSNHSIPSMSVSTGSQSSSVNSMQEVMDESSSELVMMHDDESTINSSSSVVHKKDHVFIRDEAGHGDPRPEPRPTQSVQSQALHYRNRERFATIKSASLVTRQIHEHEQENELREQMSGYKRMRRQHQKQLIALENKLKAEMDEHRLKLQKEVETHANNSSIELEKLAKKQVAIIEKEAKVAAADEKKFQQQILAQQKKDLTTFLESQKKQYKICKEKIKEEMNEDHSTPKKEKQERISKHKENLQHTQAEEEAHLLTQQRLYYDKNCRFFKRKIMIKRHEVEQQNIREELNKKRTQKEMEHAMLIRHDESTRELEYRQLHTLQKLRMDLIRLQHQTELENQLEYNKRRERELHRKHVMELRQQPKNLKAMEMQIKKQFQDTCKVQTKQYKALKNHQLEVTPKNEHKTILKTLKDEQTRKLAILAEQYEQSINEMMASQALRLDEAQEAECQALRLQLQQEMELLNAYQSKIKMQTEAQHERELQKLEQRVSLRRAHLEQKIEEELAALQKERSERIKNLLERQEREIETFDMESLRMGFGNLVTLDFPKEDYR

[9] = tested on: Tyrosine-protein kinase ABL1 (Homo sapiens), P00519 [F317L]; conditions: at 10 µM
[10] = target: Macrophage colony-stimulating factor 1 receptor (Homo sapiens) (UniProt P07333); assay: Selectivity interaction (KinomeScan (DiscoverX)) EUB0000607a CSF1R; conditions: at 10 µM
[11] = target: Tyrosine-protein kinase FRK (Homo sapiens) (UniProt P42685); assay: Selectivity interaction (Kinase panel (Z-LYTE Assay)) EUB0001632a FRK; conditions: at 10 µM
Tyrosine-protein kinase FRK (Homo sapiens), sequence (P42685 whole entry): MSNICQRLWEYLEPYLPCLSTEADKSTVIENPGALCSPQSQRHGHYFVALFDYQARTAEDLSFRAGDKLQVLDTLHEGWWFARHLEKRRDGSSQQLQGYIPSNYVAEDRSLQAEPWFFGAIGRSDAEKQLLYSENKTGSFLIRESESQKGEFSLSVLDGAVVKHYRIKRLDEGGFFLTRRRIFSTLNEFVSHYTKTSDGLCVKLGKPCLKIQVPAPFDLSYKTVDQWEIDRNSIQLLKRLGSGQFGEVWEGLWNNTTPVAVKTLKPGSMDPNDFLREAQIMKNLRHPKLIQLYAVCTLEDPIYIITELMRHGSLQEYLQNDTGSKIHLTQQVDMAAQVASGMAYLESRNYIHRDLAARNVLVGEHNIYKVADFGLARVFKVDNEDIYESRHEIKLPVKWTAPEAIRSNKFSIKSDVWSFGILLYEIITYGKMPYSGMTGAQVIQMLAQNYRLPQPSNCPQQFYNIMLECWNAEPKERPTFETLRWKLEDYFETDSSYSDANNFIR

[12] = target: Phosphatidylinositol 4-phosphate 5-kinase type-1 alpha (Homo sapiens) (UniProt Q99755); assay: Selectivity interaction (ProQinase) EUB0000171b PIP5K1A
Phosphatidylinositol 4-phosphate 5-kinase type-1 alpha (Homo sapiens), sequence (Q99755 whole entry): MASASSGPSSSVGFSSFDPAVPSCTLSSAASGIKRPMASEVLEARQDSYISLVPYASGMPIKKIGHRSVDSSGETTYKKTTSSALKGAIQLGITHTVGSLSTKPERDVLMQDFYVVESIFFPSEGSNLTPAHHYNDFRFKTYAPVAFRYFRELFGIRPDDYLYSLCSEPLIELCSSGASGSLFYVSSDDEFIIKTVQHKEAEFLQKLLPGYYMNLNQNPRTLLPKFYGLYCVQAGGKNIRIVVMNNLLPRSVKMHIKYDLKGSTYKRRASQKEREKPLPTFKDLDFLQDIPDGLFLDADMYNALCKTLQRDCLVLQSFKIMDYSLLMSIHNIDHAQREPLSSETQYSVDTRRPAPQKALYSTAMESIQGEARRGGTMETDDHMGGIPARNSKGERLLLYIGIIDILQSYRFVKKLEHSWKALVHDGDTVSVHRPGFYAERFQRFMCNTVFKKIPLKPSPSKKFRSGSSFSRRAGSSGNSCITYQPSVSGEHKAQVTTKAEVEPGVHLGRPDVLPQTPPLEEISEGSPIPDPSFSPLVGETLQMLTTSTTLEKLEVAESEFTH

[13] = target: T2, Ephrin type-B receptor 3 (Homo sapiens) (UniProt P54753); assay: Selectivity interaction (ProQinase) EUB0000171b EPHB3
T2 sequence (whole entry): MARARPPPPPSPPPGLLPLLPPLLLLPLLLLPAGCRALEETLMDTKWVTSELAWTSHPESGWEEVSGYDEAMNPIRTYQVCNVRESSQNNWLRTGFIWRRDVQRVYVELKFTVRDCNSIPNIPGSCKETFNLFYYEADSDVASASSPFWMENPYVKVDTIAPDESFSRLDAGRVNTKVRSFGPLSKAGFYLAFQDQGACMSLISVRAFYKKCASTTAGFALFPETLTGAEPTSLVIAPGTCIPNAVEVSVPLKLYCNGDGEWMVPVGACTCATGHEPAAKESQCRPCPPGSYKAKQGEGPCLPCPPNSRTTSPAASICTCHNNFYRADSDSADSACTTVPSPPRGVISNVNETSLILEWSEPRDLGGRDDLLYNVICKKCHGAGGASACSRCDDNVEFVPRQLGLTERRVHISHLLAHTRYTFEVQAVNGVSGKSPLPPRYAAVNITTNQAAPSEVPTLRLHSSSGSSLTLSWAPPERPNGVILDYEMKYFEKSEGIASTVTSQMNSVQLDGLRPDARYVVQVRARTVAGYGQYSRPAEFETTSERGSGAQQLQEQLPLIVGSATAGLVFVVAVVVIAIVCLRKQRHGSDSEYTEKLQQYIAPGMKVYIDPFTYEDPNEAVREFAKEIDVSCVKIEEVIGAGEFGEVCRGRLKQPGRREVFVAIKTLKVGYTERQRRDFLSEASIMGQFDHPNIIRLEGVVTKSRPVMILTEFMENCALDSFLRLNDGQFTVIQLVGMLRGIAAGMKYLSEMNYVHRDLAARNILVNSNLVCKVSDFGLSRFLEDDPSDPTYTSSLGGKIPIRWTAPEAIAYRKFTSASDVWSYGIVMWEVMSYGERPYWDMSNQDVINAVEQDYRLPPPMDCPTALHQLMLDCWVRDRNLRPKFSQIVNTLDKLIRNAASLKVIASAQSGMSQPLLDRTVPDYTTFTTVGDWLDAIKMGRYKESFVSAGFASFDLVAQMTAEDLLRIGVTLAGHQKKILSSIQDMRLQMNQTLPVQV

Ribosomal protein S6 kinase alpha-5 (Homo sapiens), sequence (O75582 whole entry, looked up, canonical isoform): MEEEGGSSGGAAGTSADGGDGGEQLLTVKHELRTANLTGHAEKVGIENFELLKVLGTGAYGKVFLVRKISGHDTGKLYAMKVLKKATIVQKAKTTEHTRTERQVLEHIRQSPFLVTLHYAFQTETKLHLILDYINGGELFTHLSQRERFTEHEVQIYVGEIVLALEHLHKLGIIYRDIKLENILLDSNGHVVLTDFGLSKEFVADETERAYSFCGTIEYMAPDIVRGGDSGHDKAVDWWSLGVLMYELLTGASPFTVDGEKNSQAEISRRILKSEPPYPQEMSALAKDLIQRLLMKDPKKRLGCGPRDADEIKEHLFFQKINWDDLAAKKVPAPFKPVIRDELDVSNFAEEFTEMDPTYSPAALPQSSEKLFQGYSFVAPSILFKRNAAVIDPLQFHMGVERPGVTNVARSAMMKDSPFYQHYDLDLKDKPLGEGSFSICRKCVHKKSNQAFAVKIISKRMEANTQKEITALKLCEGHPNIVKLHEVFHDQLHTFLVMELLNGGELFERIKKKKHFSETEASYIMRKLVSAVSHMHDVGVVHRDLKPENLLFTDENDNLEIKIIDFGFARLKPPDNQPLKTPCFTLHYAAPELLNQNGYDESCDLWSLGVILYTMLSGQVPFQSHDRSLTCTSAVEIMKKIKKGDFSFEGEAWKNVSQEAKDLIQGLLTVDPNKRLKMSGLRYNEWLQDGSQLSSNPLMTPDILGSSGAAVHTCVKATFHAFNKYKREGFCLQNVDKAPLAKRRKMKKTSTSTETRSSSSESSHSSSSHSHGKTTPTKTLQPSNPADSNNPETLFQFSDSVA
Phosphatidylinositol 4,5-bisphosphate 3-kinase catalytic subunit gamma isoform (Homo sapiens), sequence (P48736 whole entry, looked up, canonical isoform): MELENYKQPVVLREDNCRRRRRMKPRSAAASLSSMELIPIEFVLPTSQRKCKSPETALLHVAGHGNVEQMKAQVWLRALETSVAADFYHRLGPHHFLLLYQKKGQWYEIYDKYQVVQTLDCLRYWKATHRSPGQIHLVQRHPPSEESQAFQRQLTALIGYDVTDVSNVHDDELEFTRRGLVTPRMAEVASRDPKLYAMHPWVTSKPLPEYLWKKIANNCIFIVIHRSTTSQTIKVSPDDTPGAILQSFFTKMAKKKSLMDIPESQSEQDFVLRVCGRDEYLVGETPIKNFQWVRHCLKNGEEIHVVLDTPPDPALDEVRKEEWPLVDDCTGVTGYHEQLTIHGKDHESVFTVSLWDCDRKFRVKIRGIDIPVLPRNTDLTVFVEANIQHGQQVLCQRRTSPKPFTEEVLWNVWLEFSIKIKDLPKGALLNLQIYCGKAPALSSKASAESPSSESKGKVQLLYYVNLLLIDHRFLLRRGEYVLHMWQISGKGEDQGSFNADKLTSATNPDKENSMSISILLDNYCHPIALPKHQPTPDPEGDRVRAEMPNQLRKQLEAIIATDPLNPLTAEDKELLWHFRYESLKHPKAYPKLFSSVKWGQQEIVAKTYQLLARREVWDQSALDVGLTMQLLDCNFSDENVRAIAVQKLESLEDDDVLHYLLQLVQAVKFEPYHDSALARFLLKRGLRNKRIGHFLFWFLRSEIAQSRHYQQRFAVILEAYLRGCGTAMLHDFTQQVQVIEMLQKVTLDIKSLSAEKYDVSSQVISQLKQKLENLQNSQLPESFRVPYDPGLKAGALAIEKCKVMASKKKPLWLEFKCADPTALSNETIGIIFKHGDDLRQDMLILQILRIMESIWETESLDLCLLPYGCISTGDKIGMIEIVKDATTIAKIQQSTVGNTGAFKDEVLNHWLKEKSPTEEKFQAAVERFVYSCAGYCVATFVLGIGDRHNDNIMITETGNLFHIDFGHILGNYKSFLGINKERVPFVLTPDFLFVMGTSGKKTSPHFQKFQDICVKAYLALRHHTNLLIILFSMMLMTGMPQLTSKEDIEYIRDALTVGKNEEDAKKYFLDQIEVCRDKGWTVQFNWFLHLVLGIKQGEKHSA

COc1cc(Nc2nc(C)cc(-c3cnn4nc(OC)ccc34)n2)cc(C(F)(F)F)c1
% of control [1]: 100%

COc1cc(N(C)c2ccnc3ccc(C(F)(F)F)cc23)cc(OC)c1OC
% binding [2]: 99%

CCC(=O)N1CC[C@H](Nc2ncnc3c2CN(c2cnc(OC)c(C(F)(F)F)c2)CC3)C1 [LENIOLISIB]
IC50 [3]: > 30 µM

CCN(CC)CCCCNc1ncc2cc(-c3cc(OC)cc(OC)c3)c(NC(=O)NC(C)(C)C)nc2n1
% of control [4]: 100%

CC[C@@H]1[C@H](F)C(=O)N[C@@H]1COc1nccc2cc(C(N)=O)c(OC)cc12 [ZIMLOVISERTIB]
% of inhibition [5]: 5.29%
% of inhibition ([6]; at 0.01 µM): -3.7%
% of inhibition ([6]; at 0.04 µM): 1.4%
% of inhibition ([6]; at 0.2 µM): 2.2%
% of inhibition ([6]; at 1 µM): 2%
% of inhibition ([6]; at 5 µM): -4.4%
% of inhibition [7]: 12.2%

O[C@H]1CC[C@H](Nc2ncc3nc(Nc4c(F)cc(F)cc4F)n([C@H]4CCOC4)c3n2)CC1
% of control [8]: 81%

Cc1cc([C@@H](C)Nc2ccccc2C(=O)O)c2nc(N3CCOCC3)cc(=O)n2c1 [AZD-6482]
% of control [9]: 87%

CNC(=O)Nc1ccc(-c2nc(N3CC4CCC(C3)O4)c3cnn(C4CCC5(CC4)OCCO5)c3n2)cc1
% of control [10]: 100%

Cn1cc(-n2cnc3c(NCc4nc5cc(Cl)c(Cl)cc5[nH]4)nc(N4CCOCC4)nc32)cn1
% of control [11]: 5.87%

C=CC(=O)Nc1cccc(C(=O)Nc2ccc(Nc3cc(-c4[nH]c(SC)nc4C)ccn3)cc2)c1
% of control ([12]; at 1 µM): 102%
% of control ([12]; at 5 µM): 44%
% of control ([13]; at 1 µM): 106%
% of control ([13]; at 5 µM): 108%
